Consider four compounds from article PMC7254866 (ACS chemical biology, 2019).

Data set [1] concerns the target Rh2GUS (Roseburia hominis, UniProt A0A395V8I7). The data set can be described thus: Inhibition of Rh2GUS. The class given is biochemical.
In data set [2] the target is (UniProt D5GU71). Nature of the data set: Inhibition of H11G11 GUS. The class given is biochemical, uncultured taxon.
The target in data set [3] is FpL2-6 (Faecalibacterium prausnitzii, UniProt D4K3H3). Nature of the data set: Inhibition of FpL2-6 GUS. The class given is biochemical.
The test system of data set [4] is G380M variant of FpL2-6. Nature of the data set: Regorafenib-glucuronide processing by G380M variant of FpL2-6. The class given is biochemical, Faecalibacterium prausnitzii.
Data set [5] relates to gut microbial GUS enzymes in human feces. Type of data set: in vitro ADME.
For data set [6], the system named is intestinal homogenate lysates (cecum, small intestine, large intestine). The data set can be described thus: Regorafenib-glucuronide conversion in intestinal homogenates of SPF mice. Type of data set: in vitro ADME, C57BL/6J mice.
The test system of data set [7] is cecum and cecal contents of germ-free mice. Nature of the data set: Regorafenib-glucuronide conversion in ceca of germ-free mice. The class given is in vitro ADME, germ-free C57BL/6J mice. The conditions noted are these: cecum and cecal contents of 5 GF mice, 48 h incubation.
The subject of data set [8] is gut microbial GUS enzymes in mouse fecal samples. The class given is in vitro ADME, mice (C57BL/6 and BALB/c).
The subject of data set [9] is FpL2-6, H11G11, Rg3, and Rh2 GUS enzymes. The data set can be described thus: Catalytic efficiency across the four regorafenib-glucuronide processing enzymes. The class given is biochemical. Particulars: 4-MUG versus regorafenib-glucuronide.

Chain of (UniProt D5GU71) (D5GU71 1-754): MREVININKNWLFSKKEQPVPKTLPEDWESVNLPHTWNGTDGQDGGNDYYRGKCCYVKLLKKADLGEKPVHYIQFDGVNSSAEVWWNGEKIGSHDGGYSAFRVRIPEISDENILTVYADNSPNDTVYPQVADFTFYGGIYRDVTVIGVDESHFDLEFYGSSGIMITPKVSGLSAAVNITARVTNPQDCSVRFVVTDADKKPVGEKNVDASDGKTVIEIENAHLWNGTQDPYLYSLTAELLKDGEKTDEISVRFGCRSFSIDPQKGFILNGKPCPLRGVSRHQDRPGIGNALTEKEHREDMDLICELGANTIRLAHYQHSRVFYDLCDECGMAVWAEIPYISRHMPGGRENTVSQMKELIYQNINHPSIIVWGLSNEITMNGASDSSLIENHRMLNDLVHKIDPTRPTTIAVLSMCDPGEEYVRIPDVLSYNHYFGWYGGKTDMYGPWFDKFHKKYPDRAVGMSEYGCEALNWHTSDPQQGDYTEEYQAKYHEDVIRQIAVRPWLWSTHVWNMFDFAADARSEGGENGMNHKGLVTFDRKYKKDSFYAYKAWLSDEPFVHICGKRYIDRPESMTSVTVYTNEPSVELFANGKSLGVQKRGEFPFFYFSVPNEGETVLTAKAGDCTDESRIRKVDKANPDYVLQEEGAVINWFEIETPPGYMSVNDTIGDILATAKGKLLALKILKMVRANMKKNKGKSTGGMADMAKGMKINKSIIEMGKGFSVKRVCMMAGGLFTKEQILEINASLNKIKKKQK

With `Cc1c(-c2ccc(O)cc2)n(Cc2ccc(OCCN3CCCCCC3)cc2)c2ccc(O)cc12` [bazedoxifene], the “potency (in words)” value in data set [1] (toward Rh2GUS) is “low micromolar”.

Take `O=C(c1ccc(OCCN2CCCCC2)cc1)c1c(-c2ccc(O)cc2)sc2cc(O)ccc12` [raloxifene]: the figures for the IC50 in data set [1], in data set [2] and in [3] were 13 ± 3 µM, 100 ± 5 µM and 78 ± 9 µM, respectively.

For the compound regorafenib-glucuronide, in data set [4] (G380M variant versus FpL2-6 wild type), the “increase in catalytic efficiency” value is reported as 40 fold. Further, in data set [4] (substrate regorafenib-glucuronide, G380M variant of FpL2-6), the catalytic efficiency was 4560 s⁻¹ M⁻¹. In addition, the regorafenib-glucuronide reactivation result in [5] is listed as “no regorafenib-glucuronide reactivation”. Besides, the “regorafenib-glucuronide converted to regorafenib” value in data set [6] (cecal extracts of SPF mice, 48 h) is reported as “almost all”. The “conversion of regorafenib-glucuronide to regorafenib” value in data set [6] (small and large intestine homogenates, after 48 h) was “relatively little conversion”; in [8], “no conversion”. Further, in data set [7], the “reactivation of regorafenib from regorafenib-glucuronide” value is on record as “neither the cecum nor its contents were able to catalyze the reactivation”.

For `Cc1cc(=O)oc2cc(O[C@@H]3O[C@H](C(=O)O)[C@@H](O)[C@H](O)[C@H]3O)ccc12` [4-MUG, 4-methylumbelliferyl glucuronide], the “rate relative to rates with regorafenib-glucuronide” value in data set [9] is recorded as 10–100 times faster.

In general, IC50 refers to the midpoint of a concentration-inhibition curve. Low readings indicate higher potency, high ones lower potency.
